The structures appear in SMILES notation. Values joined by “and” are separate entries in the source; they are usually repeats but may differ in a detail not shown here. Identical values can stand only once.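 Growth conditions: 96-well plates. Treatment: test compound, 48 hours, 5 concentrations. Analysis: linear interpolation between bracketing concentrations; unreached endpoints set to highest concentration. GI50 is the concentration that inhibits growth by half. TGI is the concentration that stops growth completely.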

Among the test systems are SF-539 CNS; BT-549 breast; SK-MEL-2 melanoma; SNB-19 CNS; TK-10 renal; COLO 205 colon; SK-MEL-5 melanoma; HL-60(TB) leukemia; MALME-3M melanoma; A549 NSCLC.
Common to all, as to experiment: DTP human tumour cell line panel, 48 h

With `OCc1ccc(-c2nc(-c3ccc4c(c3)OCO4)c(-c3ccccn3)[nH]2)cc1`, the GI50 in the assay with SF-539 CNS, in the assay with BT-549 breast, in the assay with SK-MEL-2 melanoma, with SNB-19 CNS, in the assay with TK-10 renal and in the assay with COLO 205 colon was greater than 25 µM in each case. In addition, the GI50 with SK-MEL-5 melanoma was greater than 20 µM; in the assay on HL-60(TB) leukemia, greater than 25 µM; in the assay on MALME-3M melanoma, greater than 25 µM; in the assay on A549 NSCLC, greater than 25 µM. Further, the total growth inhibition concentration (TGI) with SF-539 CNS, in the assay with BT-549 breast, in the assay with SK-MEL-2 melanoma, in the assay on SNB-19 CNS, with TK-10 renal and in the assay on COLO 205 colon was greater than 25 µM each time. Further, the TGI with SK-MEL-5 melanoma, in the assay with HL-60(TB) leukemia, with MALME-3M melanoma and in the assay on A549 NSCLC was greater than 25 µM each time.
Consider `CC[C@]12CN3CCc4c([nH]c5ccccc45)[C@@](C(=O)OC)(c4cc5c(cc4OC)N(C)[C@H]4[C@@](O)(C(=O)OC)[C@H](OC(C)=O)[C@]6(CC)C=CCN7CC[C@]54[C@@H]76)CC(C3)[C@H]1O2` (stereo partly specified), for which the GI50 in the assay with SF-539 CNS is 0.128 µM; in the assay on BT-549 breast it was 0.343 µM; in the assay on SK-MEL-2 melanoma, 0.0434 µM; with SNB-19 CNS it was 0.214 µM; in the assay with TK-10 renal, 0.562 µM; in the assay with COLO 205 colon it was 0.092 µM. The GI50 was 0.0888 µM with SK-MEL-5 melanoma, 0.088 µM in the assay with HL-60(TB) leukemia, 0.0639 µM in the assay on MALME-3M melanoma and 0.599 µM with A549 NSCLC. For the same compound, the TGI with SF-539 CNS was 1.8 µM and 9.39 µM; in the assay with SNB-19 CNS, greater than 100 µM; with TK-10 renal, greater than 100 µM; with COLO 205 colon it was 1.03 µM and 0.387 µM; with SK-MEL-5 melanoma, 0.887 µM; with MALME-3M melanoma, greater than 50 µM. Further, the total growth inhibition concentration (TGI) in the assay with A549 NSCLC was greater than 100 µM.
For the compound `CCOc1ccc(-c2nc3ccc(-c4nc5ccc(N6CCN(C)CC6)cc5[nH]4)cc3[nH]2)cc1`, the GI50 is 0.689 µM in the assay on SF-539 CNS; 1.16 µM in the assay with BT-549 breast; 1.07 µM in the assay with SK-MEL-2 melanoma; 0.448 µM with SNB-19 CNS; 1.05 µM in the assay on TK-10 renal; 0.117 µM in the assay with COLO 205 colon. Besides, the GI50 with SK-MEL-5 melanoma is 0.0761 µM; in the assay on HL-60(TB) leukemia, 1.2 µM and 0.162 µM; with MALME-3M melanoma it was 0.0329 µM; in the assay with A549 NSCLC it was 1.24 µM and 1.04 µM. Also, the TGI in the assay on SF-539 CNS was found to be 2 µM; with BT-549 breast it was 2.46 µM; in the assay with SK-MEL-2 melanoma, 2.49 µM; with SNB-19 CNS it was 1.73 µM; in the assay on TK-10 renal, 2.24 µM; with COLO 205 colon it was 1.26 µM. Moreover, the TGI in the assay with SK-MEL-5 melanoma was 1.42 µM; with HL-60(TB) leukemia it was 1.23 µM; in the assay with MALME-3M melanoma it was 0.551 µM; with A549 NSCLC it was 3.13 µM and 3.35 µM.
Consider `Nc1nc(Sc2ccc([N+](=O)[O-])c3nonc23)c2ncn(C3OC(CO)C(O)C3O)c2n1` (stereo unspecified), for which the GI50 in the assay with SF-539 CNS was 0.738 µM; with BT-549 breast it was 1.6 µM; in the assay with SK-MEL-2 melanoma it was 0.393 µM; with SNB-19 CNS it was greater than 63.5 µM; in the assay with TK-10 renal it was 2.42 µM; in the assay with COLO 205 colon it was 2.59 µM. The GI50 in the assay on SK-MEL-5 melanoma was 2.4 µM; in the assay on HL-60(TB) leukemia, 3.7 µM; in the assay with MALME-3M melanoma it was 9.8 µM; in the assay on A549 NSCLC it was 4.27 µM. For the same compound, the TGI with SF-539 CNS is greater than 37.2 µM; with BT-549 breast, 18.6 µM; with SK-MEL-2 melanoma it was 8.81 µM; in the assay on SNB-19 CNS it was greater than 100 µM; in the assay on TK-10 renal, greater than 37.2 µM; in the assay with COLO 205 colon it was 14.4 µM. Besides, the total growth inhibition concentration (TGI) in the assay on SK-MEL-5 melanoma was greater than 22.4 µM; in the assay with HL-60(TB) leukemia it was 23.5 µM; in the assay with MALME-3M melanoma, greater than 42.1 µM; in the assay with A549 NSCLC, greater than 100 µM.
With `CCCCCSc1ccc2nc(NC(=O)OCC)sc2c1`, the GI50 in the assay with SF-539 CNS is 0.4 µM; in the assay with BT-549 breast, 0.487 µM; with SK-MEL-2 melanoma, 0.431 µM; in the assay on SNB-19 CNS, 0.778 µM; in the assay with TK-10 renal, 2.25 µM; with COLO 205 colon it was 0.53 µM. For the same compound, the GI50 in the assay with SK-MEL-5 melanoma is 0.658 µM; in the assay on HL-60(TB) leukemia, 0.351 µM; in the assay on MALME-3M melanoma it was 0.514 µM; in the assay with A549 NSCLC it was 2.37 µM. Besides, the total growth inhibition concentration (TGI) in the assay with SF-539 CNS is 4.77 µM; in the assay on BT-549 breast it was greater than 100 µM; in the assay on SK-MEL-2 melanoma, 25.3 µM; in the assay with SNB-19 CNS, greater than 100 µM; in the assay with TK-10 renal, 52.8 µM; with COLO 205 colon, greater than 100 µM. In addition, the concentration for total growth inhibition (TGI) in the assay with SK-MEL-5 melanoma, in the assay with HL-60(TB) leukemia, with MALME-3M melanoma and in the assay on A549 NSCLC was greater than 100 µM each time.
For the compound `CCOC(=O)Cc1csc(NC(=O)C(OC(=O)c2ccc(Cl)cc2)c2ccccc2)n1` (stereo unspecified), the GI50 in the assay with SF-539 CNS was 25.3 µM; in the assay on BT-549 breast, 25.9 µM; with SK-MEL-2 melanoma it was 23.8 µM; with SNB-19 CNS, 50.5 µM; in the assay on TK-10 renal it was greater than 100 µM; in the assay on COLO 205 colon, 38.3 µM. Also, the GI50 was 18 µM in the assay on SK-MEL-5 melanoma, 9.28 µM with HL-60(TB) leukemia, 47.9 µM in the assay with MALME-3M melanoma and 47.1 µM in the assay on A549 NSCLC. For the same compound, the TGI in the assay with SF-539 CNS was 54.8 µM; with BT-549 breast it was 56.9 µM; with SK-MEL-2 melanoma it was 50.7 µM; in the assay on SNB-19 CNS, greater than 100 µM; in the assay with TK-10 renal it was greater than 100 µM; in the assay on COLO 205 colon it was greater than 100 µM. The concentration for total growth inhibition (TGI) with SK-MEL-5 melanoma was 36 µM; with HL-60(TB) leukemia, 68.9 µM; in the assay with MALME-3M melanoma, greater than 100 µM; in the assay with A549 NSCLC, greater than 100 µM.
For the compound `COc1cc(-n2cc(-c3ccc(Cl)cc3)n(-c3ccccc3)c2=O)cc(OC)c1OC`, the GI50 was 27.1 µM in the assay with SF-539 CNS; 17.5 µM in the assay with BT-549 breast; 17.4 µM in the assay on SK-MEL-2 melanoma; 36.7 µM with SNB-19 CNS; 35.5 µM in the assay with TK-10 renal; 11.7 µM with COLO 205 colon. Also, the GI50 in the assay on SK-MEL-5 melanoma was 3.99 µM; in the assay with HL-60(TB) leukemia it was 2.82 µM; in the assay on MALME-3M melanoma, 21.2 µM; in the assay on A549 NSCLC, 19.3 µM. For the same compound, the TGI is greater than 100 µM with SF-539 CNS; 57.3 µM with BT-549 breast; 40 µM in the assay with SK-MEL-2 melanoma; greater than 100 µM with SNB-19 CNS; greater than 100 µM in the assay with TK-10 renal; 44.2 µM in the assay on COLO 205 colon. Also, the TGI in the assay with SK-MEL-5 melanoma is 17.7 µM; with HL-60(TB) leukemia it was greater than 47.6 µM; in the assay on MALME-3M melanoma, 75.2 µM; in the assay on A549 NSCLC it was greater than 100 µM.
On to `Nc1nc(-c2cccnc2)cc(-c2cc(-c3cccnc3)nc(N)n2)n1`, for which the concentration for total growth inhibition (TGI) in the assay on SF-539 CNS, with BT-549 breast, in the assay with SK-MEL-2 melanoma, in the assay with SNB-19 CNS, in the assay on TK-10 renal and with COLO 205 colon was greater than 100 µM throughout. Besides, the TGI in the assay on SK-MEL-5 melanoma, with HL-60(TB) leukemia, with MALME-3M melanoma and in the assay on A549 NSCLC was greater than 100 µM in each case.
As to `COc1ccc(C(=O)/C=C/c2cc(-c3ccc(OC)c(OC)c3)n[nH]2)cc1OC`, the GI50 in the assay with SF-539 CNS is 0.525 µM; with BT-549 breast it was 1.44 µM; in the assay with SK-MEL-2 melanoma, 2.46 µM; in the assay with SNB-19 CNS, 1.67 µM; in the assay on TK-10 renal, 4.96 µM; in the assay with COLO 205 colon it was 1.55 µM. Further, the GI50 is 1.58 µM in the assay with SK-MEL-5 melanoma, 2.76 µM in the assay with HL-60(TB) leukemia, 2.59 µM in the assay with MALME-3M melanoma and 2.25 µM in the assay on A549 NSCLC. Further, the TGI in the assay with SF-539 CNS came to 2.54 µM; in the assay on BT-549 breast it was 2.92 µM; with SK-MEL-2 melanoma, 5.17 µM; in the assay with SNB-19 CNS, 4.16 µM; in the assay with TK-10 renal, 47.7 µM; in the assay with COLO 205 colon, 3.1 µM. The TGI was 2.96 µM in the assay on SK-MEL-5 melanoma, greater than 100 µM in the assay on HL-60(TB) leukemia, 6.21 µM with MALME-3M melanoma and 10.2 µM in the assay with A549 NSCLC.
Regarding `O=S(O)O.O=S(O)O.[Co].[NH2-].[NH2-].[NH2-].[NH2-]`, the GI50 in the assay on SF-539 CNS, in the assay with BT-549 breast, in the assay with SK-MEL-2 melanoma, in the assay with SNB-19 CNS, with TK-10 renal and in the assay on COLO 205 colon was greater than 100 µM in each case. For the same compound, the GI50 with SK-MEL-5 melanoma, in the assay on HL-60(TB) leukemia, in the assay with MALME-3M melanoma and in the assay on A549 NSCLC was greater than 100 µM each time. The total growth inhibition concentration (TGI) in the assay on SF-539 CNS, with BT-549 breast, with SK-MEL-2 melanoma, in the assay on SNB-19 CNS, with TK-10 renal and with COLO 205 colon was greater than 100 µM each time. Also, the total growth inhibition concentration (TGI) in the assay on SK-MEL-5 melanoma, with HL-60(TB) leukemia, in the assay with MALME-3M melanoma and in the assay with A549 NSCLC was greater than 100 µM in each case.
For `NC(=O)c1cn(C2CC(O)C(CO)O2)c2ncnc(N)c12` (stereo unspecified), the GI50 in the assay with SF-539 CNS is 3.34 µM; in the assay on BT-549 breast, 0.203 µM; with SK-MEL-2 melanoma, 10.5 µM; in the assay on SNB-19 CNS, 7 µM; in the assay with TK-10 renal, 1.96 µM; with COLO 205 colon it was 5.01 µM. In addition, the GI50 in the assay with SK-MEL-5 melanoma is 5.42 µM; in the assay with HL-60(TB) leukemia it was 2.73 µM; with MALME-3M melanoma it was 0.763 µM; in the assay on A549 NSCLC, 5.2 µM. The TGI with SF-539 CNS is 15.1 µM; in the assay on BT-549 breast it was 2.87 µM; in the assay on SK-MEL-2 melanoma it was greater than 28.2 µM; in the assay with SNB-19 CNS, 45.5 µM; in the assay on TK-10 renal, 19.5 µM; with COLO 205 colon, 24 µM. Further, the concentration for total growth inhibition (TGI) in the assay on SK-MEL-5 melanoma is 31.9 µM; with HL-60(TB) leukemia, 20 µM; in the assay with A549 NSCLC, 41.1 µM.

In general, GI50 refers to the concentration that inhibits growth by half. For orientation: TGI means the concentration giving total growth inhibition. A low value points to more potent growth arrest.
